Source: US20240131040A1, “COMPOSITIONS AND METHODS RELATED TO CANNABINOID ANIONS” (NATURAL EXTRACTION SYSTEMS, LLC, priority 2021, published 2024)

Assays:
[1] = tested on: dog that suffers from chronic seizures; assay: Case report: epilepsy in a dog; type: in vivo; conditions: glycerol tincture immediately after the onset of a seizure
Experimental: A dog that suffers from chronic seizures was administered a glycerol tincture containing the cannabidiol anion immediately after the onset of a seizure.

[2] = tested on: individual who presented with back pain associated with driving for prolonged periods of time; assay: Case report: acute back pain; type: in vivo, humans; conditions: glycerol tincture, ingested
Experimental: An individual who presented with back pain associated with driving for prolonged periods of time was administered a glycerol tincture containing the cannabidiol anion.

[3] = tested on: individual who presented with hip pain associated with sitting; assay: Case report: chronic hip pain; type: in vivo, humans; conditions: glycerol tincture, ingested
Experimental: An individual who presented with hip pain associated with sitting was administered a glycerol tincture containing the cannabidiol anion.

[4] = tested on: individual who presented with chronic back pain associated with standing; assay: Case report: chronic back pain; type: in vivo, humans; conditions: glycerol tincture, ingested
Experimental: An individual who presented with chronic back pain associated with standing was administered a glycerol tincture containing the cannabidiol anion.

[5] = tested on: individual who presented with chronic pain; assay: Case report: chronic pain; type: in vivo, humans; conditions: glycerol tincture
Experimental: An individual who presented with chronic pain was administered a glycerol tincture containing the cannabidiol anion.

[6] = tested on: individual with hip pain and lower back pain associated with spinal fusion surgery; assay: Case report: post laminectomy syndrome; type: in vivo, humans; conditions: glycerol tincture, ingested
Experimental: An individual with hip pain and lower back pain associated with spinal fusion surgery was administered a glycerol tincture containing the cannabidiol anion.

[7] = tested on: individual who presented with cancer pain caused by throat cancer; assay: Case report: cancer pain; type: in vivo, humans; conditions: water containing the anion, ingested
Experimental: An individual who presented with cancer pain caused by throat cancer was administered water containing the cannabidiol anion (2-[6-isopropenyl-3-methylcyclohex-2-enyl]-3-hydroxy-5-pentylphenolate).

[8] = tested on: individual who presented with cramping and restless legs syndrome; assay: Case report: cramping and restless legs syndrome; type: in vivo, humans; conditions: glycerol tincture before sleep
Experimental: An individual who presented with cramping and restless legs syndrome was administered a glycerol tincture containing the cannabidiol anion before sleep.

[9] = tested on: individuals with anxiety; assay: Case reports: anxiety; type: in vivo, humans
Experimental: An individual was administered a beverage containing the cannabidiol anion prior to driving to an airport to catch a flight that was scheduled to leave within thirty minutes of the arrival at the airport.
An individual who suffers from chronic anxiety was administered a glycerol tincture containing the cannabigerol anion.

[10] = tested on: individual who presented with social anxiety associated with presenting at business meetings; assay: Case report: social anxiety; type: in vivo, humans; conditions: beverage containing the anion, before presenting
Experimental: An individual who presented with social anxiety associated with presenting at business meetings was administered a beverage containing the cannabidiol anion before presenting.

[11] = tested on: individual with arthritis; assay: Case report: arthritis; type: in vivo, humans; conditions: glycerol tincture
Experimental: An individual who was unable to fill […] hydroxychloroquine prescription to treat the arthritis during the COVID-19 pandemic was administered a glycerol tincture containing the cannabidiol anion.

[12] = tested on: individual who presented with knee pain associated with inflammation caused by trauma from a fall; assay: Case report: knee pain; type: in vivo, humans; conditions: glycerol tincture, ingested
Experimental: An individual who presented with knee pain associated with inflammation caused by trauma from a fall was administered a glycerol tincture containing the cannabidiol anion.

[13] = tested on: individual who presented with plaque psoriasis; assay: Case report: plaque psoriasis; type: in vivo, humans; conditions: glycerol formulation, topical
Description: An individual who presented with plaque psoriasis topically administered a glycerol formulation containing the cannabigerol anion.

[14] = tested on: individual who presented with Crohn's disease; assay: Case report: Crohn's disease; type: in vivo, humans; conditions: glycerol tincture
Experimental: An individual who presented with Crohn's disease was administered a glycerol tincture containing the cannabigerol anion.

[15] = tested on: individual who presented with Inflammatory Bowel Disease; assay: Case report: Inflammatory Bowel Disease; type: in vivo, humans; conditions: glycerol tincture
Experimental: An individual who presented with Inflammatory Bowel Disease was administered a glycerol tincture containing the cannabigerol anion.

[16] = tested on: individual who presented with chronic insomnia; assay: Case report: insomnia; type: in vivo, humans; conditions: glycerol tincture before sleep
Experimental: An individual who presented with chronic insomnia was administered a glycerol tincture containing the cannabigerol anion before sleep.

[17] = tested on: individual who presented with peripheral neuropathy; assay: Case report: peripheral neuropathy; type: in vivo, humans; conditions: glycerol formulation, topical
Description: An individual who presented with peripheral neuropathy topically administered a glycerol formulation containing the cannabigerol anion.

[18] = tested on: Mice fed a high-fat diet; assay: Diet-induced obesity model: body weight, serum ALT/AST, liver steatosis; type: in vivo; conditions: 1-64 mg/kg/day oral gavage for two months; for liver steatosis: hematoxylin and eosin staining
Experimental: Mice are fed either a control standard diet or a high-fat diet beginning when they are two months old. The mice are concomitantly administered either vehicle or a cannabinoid selected from cannabigerol and cannabigerovarin at an amount of either 1, 2, 4, 8, 16, 32, or 64 milligrams cannabinoid per kilogram mouse body weight per day by oral gavage.
Mouse body weights are measured daily. The mice are sacrificed when they are four months old following two months of the diet, cannabinoid (or vehicle), and weighing. Serum alanine aminotransferase (“ALT”) and serum aspartate aminotransferase (“AST”) are measured using a Reflotran Plus blood chemistry system (Roche, Switzerland). Mouse livers are fixed and then stained with hematoxylin and eosin to visualize liver steatosis.

[19] = tested on: Female Sabra mice; assay: Zymosan A right hind paw arthritis model: paw swelling (calipers) and pain (Von Frey); type: in vivo; conditions: relative to vehicle control groups, 1-64 mg/kg/day oral gavage for one month; for right hind paw inflammation: swelling at 1, 2, 6, 12, 24 hours after zymosan A; for right hind paw pain: Von Frey hair aesthesiometer
Experimental: (§1) Female Sabra mice are administered either vehicle or a cannabinoid. The cannabinoid is selected from 2-geranyl-5-pentylbenzene-1,3-diol (“cannabigerol”) and 2-geranyl-5-propylbenzene-1,3-diol (“cannabigerovarin”). The cannabinoid is administered at an amount of either 1, 2, 4, 8, 16, 32, or 64 milligrams cannabinoid per kilogram mouse body weight per day by oral gavage beginning when they are two months old.
(§2) Following one month of administration of either vehicle or a cannabinoid, 30 microliters of a 2 percent weight-by-volume suspension of zymosan A in saline is injected into each right hind paw of the mice. Inflammation is measured with calipers to determine right hind paw swelling at 1, 2, 6, 12, and 24 hours following the zymosan A injection relative to left hind paw. Pain is measured with a Von Frey hair aesthesiometer to determine right hind paw sensitivity to force relative to left hind paw. Serum TNF-alpha concentration is measured at 24 hours by enzyme-linked immunosorbent assay.

[20] = tested on: neutrophil-mediated inflammation; assay: Zymosan A knee arthritis model: neutrophil elastase imaging and transcript RT-PCR; type: in vivo; conditions: male C57BL/6J mice; for imaged right knee neutrophil elastase: relative to vehicle control group, imaged 4 hours post-injection, 1-64 mg/kg/day oral gavage; for adamts4 transcripts / myeloperoxidase transcripts / neutrophil elastase transcripts: relative to vehicle control groups, real-time PCR
Experimental: Male C57BL/6J mice are administered either vehicle or a cannabinoid. The cannabinoid is selected from cannabigerol and cannabigerovarin. The cannabinoid is administered at an amount of either 1, 2, 4, 8, 16, 32, or 64 milligrams cannabinoid per kilogram mouse body weight per day by oral gavage beginning when they are two months old.
Following one month of administration, mice are anesthetized with isoflurane and then 180 micrograms of zymosan A in saline is injected into the right knee of each mouse. Equivalent volumes of saline are injected into the left knee of each mouse. Mice are then injected with Neutrophil Elastase 680 FAST imaging probe (Perkin Elmer, Massachusetts, United States) and imaged 4 hours post-injection using an IVIS Spectrum In Vivo Imaging System (Perkin Elmer) to measure neutrophil-mediated inflammation. Mouse RNA is extracted and purified, and then relative adamts4 transcript, relative neutrophil elastase transcript, and relative myeloperoxidase transcript concentrations are measured following reverse transcription using real-time polymerase chain reactions.

[21] = tested on: TNF-alpha; assay: Serum TNF-alpha by enzyme-linked immunosorbent assay in zymosan A paw model; type: in vivo, mice; conditions: relative to vehicle control groups; 24 hours after zymosan A; 1-64 mg/kg/day oral gavage
Experimental: as §1, §2

Structure (SMILES) | body weight [18] | serum ALT [18] | serum AST [18] | liver steatosis [18] | right hind paw inflammation [19] | right hind paw pain [19] | imaged right knee neutrophil elastase [20] | adamts4 transcripts [20] | myeloperoxidase transcripts [20] | neutrophil elastase transcripts [20] | serum TNF-alpha concentration [21] | also measured
C=C(C)C1CCC(C)=CC1c1c(O)cc(CCCCC)cc1O (stereo not shown) [cannabidiol anion, 2-[6-isopropenyl-3-methylcyclohex-2-enyl]-3-hydroxy-5-pentylphenolate] | – | – | – | – | – | – | – | – | – | – | – | seizures (reported by owners) [1]: both instantaneously and consistently arrested multiple seizures in the dog; back pain (self-reported) [2]: notable alleviation of the back pain within minutes of ingestion; hip pain (self-reported) [3]: notable alleviation of the hip pain within minutes of ingestion; back pain (self-reported) [4]: notable alleviation of the back pain within minutes of ingestion; chronic pain (self-reported) [5]: alleviation of pain that significantly improved their standard of living; hip pain and lower back pain (self-reported) [6]: notable alleviation of hip pain and lower back pain within minutes of ingestion; throat pain (self-reported) [7]: notable alleviation of throat pain within minutes of ingestion; sleep quality (self-reported) [8]: significant improvement in sleep quality; anxiety during drive to airport (self-reported) ([9]; beverage containing the anion, before driving): notable absence of anxiety; social anxiety and performance during business meeting (self-reported) [10]: reduced anxiety and improved performance during the business meeting; treatment of arthritis compared with hydroxychloroquine (self-reported) [11]: more effective at treating their arthritis than hydroxychloroquine; mobility and knee pain (self-reported) [12]: improved mobility and alleviation of knee pain within minutes of ingestion
CCCCCc1cc(O)c(C/C=C(\C)CCC=C(C)C)c(O)c1 [cannabigerol anion, 2-geranyl-3-hydroxy-5-pentylphenolate] | – | – | – | – | – | – | – | – | – | – | – | plaque psoriasis symptoms (self-reported) [13]: significant improvement in their plaque psoriasis symptoms; symptoms of Crohn's disease (self-reported) [14]: significant improvement in their symptoms of Crohn's disease; symptoms of Inflammatory Bowel Disease (self-reported) [15]: significant improvement in their symptoms of Inflammatory Bowel Disease; onset and quality of sleep (self-reported) [16]: significant improvement in the onset and quality of their sleep; chronic anxiety symptoms (self-reported) ([9]; glycerol tincture): significant improvement in their anxiety symptoms; peripheral neuropathy symptoms (self-reported) [17]: significant improvement in their peripheral neuropathy symptoms
CCCCCc1cc(O)c(C/C=C(\C)CCC=C(C)C)c(O)c1 [cannabigerol, 2-geranyl-5-pentylbenzene-1,3-diol] | dose-dependent reduction | dose-dependent reduction | dose-dependent reduction | dose-dependent reduction | dose-dependent reduction | dose-dependent reduction | dose-dependent reduction | dose-dependent reduction | dose-dependent reduction | dose-dependent reduction | dose-dependent reduction | –
CCCc1cc(O)c(C/C=C(\C)CCC=C(C)C)c(O)c1 [cannabigerovarin, 2-geranyl-5-propylbenzene-1,3-diol] | dose-dependent reduction | dose-dependent reduction | dose-dependent reduction | dose-dependent reduction | dose-dependent reduction | dose-dependent reduction | dose-dependent reduction | dose-dependent reduction | dose-dependent reduction | dose-dependent reduction | dose-dependent reduction | –
